In general, IC50 refers to the concentration needed to halve the response being measured. Broadly, the viability is a read-out of living cells in per cent, often relative to untreated cells. As a reminder, the MIC is the smallest concentration in the dilution series that meets the test's criterion for growth inhibition.

Series [1] has as its target T1, MtbADSL (Mycobacterium tuberculosis, UniProt I6XWA1). Nature of the series: PPDK-luciferase coupling Mtb ADSL enzyme assay. It counts as biochemical.
Another series deals with T2, human ADSL (huADSL) (Homo sapiens, UniProt P30566).
T2 sequence (P30566 1-484): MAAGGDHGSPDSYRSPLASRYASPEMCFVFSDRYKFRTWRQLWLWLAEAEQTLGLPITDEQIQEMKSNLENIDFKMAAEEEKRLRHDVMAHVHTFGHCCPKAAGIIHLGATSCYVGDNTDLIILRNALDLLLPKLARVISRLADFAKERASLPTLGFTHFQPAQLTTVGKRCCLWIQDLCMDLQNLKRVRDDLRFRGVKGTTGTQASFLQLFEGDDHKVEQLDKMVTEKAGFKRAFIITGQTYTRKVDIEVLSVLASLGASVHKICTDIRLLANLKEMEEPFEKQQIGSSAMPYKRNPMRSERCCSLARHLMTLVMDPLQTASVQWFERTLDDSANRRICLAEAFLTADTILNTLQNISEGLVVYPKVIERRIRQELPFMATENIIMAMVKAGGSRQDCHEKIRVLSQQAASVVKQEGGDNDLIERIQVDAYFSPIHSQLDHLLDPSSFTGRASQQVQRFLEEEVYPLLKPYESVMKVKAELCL
Briefly: Human ADSL PPDK-AMP assay. It counts as biochemical. The settings on record: for SI, selectivity index, IC50-human/IC50-Mtb: PPDK-coupling assay.

The nature of series [2]: in vitro. The settings on record: human.
In a further series the test system is M. tuberculosis H37Ra. Briefly: Antibacterial susceptibility, broth dilution, AlamarBlue. It counts as cell-based. The settings on record: Mycobacterium tuberculosis, read-out: MIC H37Ra. On the technique in general: Broth dilution looks for growth in wells or tubes with falling amounts of substance.
For series [3], the system named is intracellular Mtb H37Ra in RAW264.7 macrophages. Briefly: Phagocytosis assay, intracellular bacterial load in RAW264.7 macrophages.
The target in series [4] is T1, MtbADSL. Briefly: Fluorescence polarization. In kind it is biochemical. For orientation: Fluorescence polarisation rises when a labelled molecule tumbles more slowly, as on binding a larger partner.
A further series concerns M. tuberculosis H37Rv. Briefly: Antibacterial susceptibility, OD600, MIC estimated as EC90. It counts as cell-based. The note with it: Mycobacterium tuberculosis, read-out: MIC H37Rv (estimated by EC90).
Series [5] deals with coupling enzymes, PPDK and luciferase. Briefly: ADSL-free PPDK-luciferase coupling enzyme assay. It counts as biochemical, Clostridium symbiosum (PPDK); firefly (luciferase). The settings on record: read-out: IC50 ADSL-free; no ADSL, AMP 10 μM as substrate.
A short description of series [6]: in vitro. The settings on record: human, CC50 CCF-STTG1.
Series [7] has as its target T1, MtbADSL. Nature of the series: AMP-Glo Mtb ADSL assay. In kind it is biochemical.
Series [8] has as its target T1, MtbADSL. Nature of the series: Gel-based thermal shift assay. It counts as binding. The settings on record: 15 or 30 μM compound, MtbADSL 5 μM.
Series [9] deals with T1, MtbADSL. Briefly: Protein thermal shift assay. In kind it is binding. The settings on record: compound together with 4-HNE, 10 μM.
The nature of series [10]: Cytotoxicity CCK-8. The settings on record: human, HEK293 cells.
In a further series the test system is Mycobacterium abscessus. The settings on record: cited from earlier work.
A further series concerns A549 cells. Nature of the series: Cytotoxicity CCK-8. The note with it: at the MIC determined for H37Rv.
A short description of series [11]: Cytotoxicity CCK-8. The settings on record: human.
A further series deals with Mtb H37Ra. Briefly: AMP rescue assay. In kind it is cell-based, Mycobacterium tuberculosis. The note with it: compound at MIC, AMP 0-5 mM, 7 days.
A short description of series [12]: Cytotoxicity CCK-8. The settings on record: human, CCF-STTG1 cells, CC50 CCF-STTG1, 48 h.

Each structure is given as a SMILES string. Converted amounts (≈) assume the structure as drawn. Where two headings read alike, the source gives them in different places. Some results are limits rather than exact numbers.

As for `CCCCCC(O)/C=C/C=O` (stereo not shown) [4-HNE, 4-hydroxynonenal], the IC50 at MtbADSL [1] (read-out: IC50-Mtb PPDK, PPDK-luciferase coupling assay, SAMP 20 μM) came to 2.6 µM.
On to `O=C(O)Cc1cc(I)c(Oc2cc(I)c(O)c(I)c2)c(I)c1` [Tetrac, tetraiodothyroacetic acid], for which the IC50 against human ADSL (huADSL) stood at 22.4 µM; against MtbADSL [4], 13 µM; in series [5] it was 24.5 µM; at MtbADSL [7], 1.6 µM; on MtbADSL [1] it was 4.8 µM. At human ADSL (huADSL) (listed as TT), the “SI, selectivity index, IC50-human/IC50-Mtb” value is recorded as 4.7. Further, in “in vitro [2]”, the viability at 48 h is ~71%. Further, the minimum inhibitory concentration (MIC) is 6.2 µg/mL in the series on M. tuberculosis H37Ra (168 h), 8.3 µM in the series with M. tuberculosis H37Ra and 30 µM (≈ 22.4 µg/mL) in the series with M. tuberculosis H37Rv. Moreover, the entries for the “Reduction of intracellular Mtb growth” value in series [3] (5 μM) and in series [3] (15 μM) were ~ 1 log and ~ 2.5 log, respectively. In addition, the CC50 at 48 h in “in vitro [6]” is > 200 µM. The “Protection of MtbADSL from heat-induced denaturation and aggregation” value on MtbADSL [8] is “dose-dependent protection”. The “Reduction of Tm on co-incubation with 4-HNE” value on MtbADSL [9] is ~ 0.6 °C.
Regarding `Oc1c(Cl)cc(Cl)cc1Sc1cc(Cl)cc(Cl)c1O` [bithionol], the CC50 at 48 h in “Cytotoxicity CCK-8 [10]” is 19.3 µM; in the series “Cytotoxicity CCK-8 [11]”, 32.4 µM; in the series “Cytotoxicity CCK-8 [12]” it was ~139 µM. Besides, the IC50 on human ADSL (huADSL) was 14.7 µM; on MtbADSL [4], 6.2 µM; in series [5], 21.6 µM; against MtbADSL [7] it was 1.2 µM; against MtbADSL [1], 1.6 µM. Moreover, the “SI, selectivity index, IC50-human/IC50-Mtb” value on human ADSL (huADSL) is listed as 9.2. For the same molecule, in the series on Mycobacterium abscessus, the “MIC against Mycobacterium abscessus” value is 0.625 to 2.5 µM. Moreover, the “Reduction of A549 cell viability” value in the series on A549 cells is ~ 45%. In addition, the minimal inhibitory concentration (MIC) in the series with M. tuberculosis H37Ra (168 h) was 3.1 µg/mL; in the series on M. tuberculosis H37Ra it was 8.7 µM; in the series on M. tuberculosis H37Rv it was 28 µM (≈ 9.97 µg/mL). Besides, in the series with Mtb H37Ra, the “AMP concentration at which growth is rescued” value is 5.0 mM. Moreover, the “Reduction of intracellular Mtb growth” value in series [3] (5 μM) is ~ 2.3 log; in series [3] (15 μM), 4.6 log. Further, the “Protection of MtbADSL from heat-induced denaturation and aggregation” value on MtbADSL [8] was “dose-dependent protection”.

Source of the values: PMC12812255 (ACS infectious diseases, 2025).
